According to patent publication US20190388425A1, “SUBSTITUTED IMIDAZOPYRIDINPYRIMIDINES” (Bayer Pharma Aktiengesellschaft, priority 2017, published 2019):
Where two headings read alike, the source gives them in different places.

Molecular target: T1, human full-length MKNK1 (Homo sapiens, UniProt Q9BUB5, T385D)
T1 construct: GST (N); purchased Carna Biosciences 02-145; host or cells: insect cells (baculovirus expression system)
Experiment: MKNK1 kinase high ATP assay (TR-FRET)
Assay type: biochemical
Method: MKNK1 Kinase High ATP Assay
MKNK1-inhibitory activity at high ATP of compounds of the present invention after their preincubation with MKNK1 was quantified employing the TR-FRET-based MKNK1 high ATP assay as described in the following paragraphs.
As substrate for the kinase reaction the biotinylated peptide biotin-Ahx-[…] (C-terminus in amide form) was used, which can be purchased e.g. from the company Biosyntan (Berlin-Buch, Germany).
For the assay 50 nL of a 100 fold concentrated solution of the test compound in DMSO was pipetted into a black low volume 384 well microtiter plate (Greiner Bio-One, Frickenhausen, Germany), 2 μL of a solution of MKNK1 in aqueous assay buffer [50 mM HEPES pH 7.5, 5 mM MgCl2, 1.0 mM dithiothreitol, 0.005% (v/v) Nonidet-P40 (Sigma)] was added and the mixture was incubated for 15 min at 22° C. to allow pre-binding of the test compounds to the enzyme before the start of the kinase reaction. Then the kinase reaction was started by the addition of 3 μL of a solution of adenosine-tri-phosphate (ATP, 3.3 mM=>final conc. in the 5 μL assay volume is 2 mM) and substrate (0.1 μM=>final conc. in the 5 μL assay volume is 0.06 μM) in assay buffer and the resulting mixture was incubated for a reaction time of 30 min at 22° C. The concentration of MKNK1 was adjusted depending of the activity of the enzyme lot and was chosen appropriate to have the assay in the linear range, typical concentrations were in the range of 0.003 μg/mL. The reaction was stopped by the addition of 5 μL of a solution of TR-FRET detection reagents (5 nM streptavidine-XL665 [Cisbio Bioassays, Codolet, France] and 1 nM anti-ribosomal protein S6 (pSer236)-antibody from Invitrogen [#44921G] and 1 nM LANCE EU-W1024 labeled ProteinG [Perkin-Elmer, product no. AD0071]) in an aqueous EDTA-solution (100 mM EDTA, 0.1% (w/v) bovine serum albumin in 50 mM HEPES pH 7.5).
The resulting mixture was incubated for 1 h at 22° C. to allow the formation of complex between the phosphorylated biotinylated peptide and the detection reagents. Subsequently the amount of phosphorylated substrate was evaluated by measurement of the resonance energy transfer from the Eu-chelate to the streptavidine-XL. Therefore, the fluorescence emissions at 620 nm and 665 nm after excitation at 350 nm were measured in a TR-FRET reader, e.g. a Rubystar (BMG Labtechnologies, Offenburg, Germany) or a Viewlux (Perkin-Elmer). The ratio of the emissions at 665 nm and at 622 nm was taken as the measure for the amount of phosphorylated substrate.

[1] = TR-FRET, 2 mM ATP (high ATP), 15 min preincubation with enzyme, 30 min reaction at 22° C., read-out: MKNK1 IC50

T1 sequence (Q9BUB5 1-424 isoform Q9BUB5-2 T344D): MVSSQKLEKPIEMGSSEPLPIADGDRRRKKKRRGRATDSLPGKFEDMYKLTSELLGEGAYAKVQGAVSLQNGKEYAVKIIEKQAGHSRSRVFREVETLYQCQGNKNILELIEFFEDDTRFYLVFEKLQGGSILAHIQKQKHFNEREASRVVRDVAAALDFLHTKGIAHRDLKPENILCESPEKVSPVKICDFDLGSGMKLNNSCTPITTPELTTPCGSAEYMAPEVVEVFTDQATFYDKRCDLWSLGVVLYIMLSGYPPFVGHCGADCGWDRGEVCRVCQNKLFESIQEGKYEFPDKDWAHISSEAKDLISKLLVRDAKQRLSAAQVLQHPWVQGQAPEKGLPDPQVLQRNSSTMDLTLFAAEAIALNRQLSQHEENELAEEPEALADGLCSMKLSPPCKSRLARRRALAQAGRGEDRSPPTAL

Row | Structure (SMILES) | IC50 [1] [nM] | IC50 [nM]
1 | Cc1cc(Nc2ncnc3sc4c(c23)CC[C@H](C(=O)O)C4)c(=O)n2c1C(=O)NC21CCCCC1 [Example 1, (7S)-4-[(8′-Methyl-1′,5′-dioxo-1′,5′-dihydro-2′H-spiro[cyclohexane-1,3′-imidazo[1,5-a]pyridin]-6′-yl)amino]-5,6,7,8-tetrahydro[1]benzothieno[2,3-d]pyrimidine-7-carboxylic acid] | 9 | –
2 | Cc1cc(Nc2ncnc3sc4c(c23)CC[C@H](C(=O)N(C)C)C4)c(=O)n2c1C(=O)NC21CCCCC1 [Example 2, (7S)—N, N-Dimethyl-4-[(8′-methyl-1′,5′-dioxo-1′,5′-dihydro-2′H-spiro[cyclohexane-1,3′-imidazo[1,5-a]pyridin]-6′-yl)amino]-5,6,7,8-tetrahydro[1]benzothieno[2,3-d]pyrimidine-7-carboxamide] | 0.2 | –
3 | Cc1cc(Nc2ncnc3sc4c(c23)CC[C@H](C(=O)N2CCC2)C4)c(=O)n2c1C(=O)NC21CCCCC1 [Example 3, 6′-{[(7S)-7-(Azetidin-1-ylcarbonyl)-5,6,7,8-tetrahydro[1]benzothieno[2,3-d]pyrimidin-4-yl]amino}-8′-methyl-2′H-spiro[cyclohexane-1,3′-imidazo[1,5-a]pyridine]-1′,5′-dione] | 0.3 | –
4 | CNC(=O)[C@H]1CCc2c(sc3ncnc(Nc4cc(C)c5n(c4=O)C4(CCCCC4)NC5=O)c23)C1 [Example 4, (7S)—N-Methyl-4-[(8′-methyl-1′,5′-dioxo-1′,5′-dihydro-2′H-spiro[cyclohexane-1,3′-imidazo[1,5-a]pyridin]-6′-yl)amino]-5,6,7,8-tetrahydro[1]benzothieno[2,3-d]pyrimidine-7-carboxamide] | 0.4 | –
5 | Cc1cc(Nc2ncnc3sc4c(c23)CC[C@H](C(=O)N2CC(C#N)C2)C4)c(=O)n2c1C(=O)NC21CCCCC1 [Example 5, 1-({(7S)-4-[(8′-Methyl-1′,5′-dioxo-1′,5′-dihydro-2′H-spiro[cyclohexane-1,3′-imidazo[1,5-a]pyridin]-6′-yl)amino]-5,6,7,8-tetrahydro[1]benzothieno[2,3-d]pyrimidin-7-yl}carbonyl)azetidine-3-carbonitrile] | 1.1 | –
6 | Cc1cc(Nc2ncnc3sc4c(c23)CC[C@H](C(=O)N2CC(C)(O)C2)C4)c(=O)n2c1C(=O)NC21CCCCC1 [Example 6, 6′-({(7S)-7-[(3-Hydroxy-3-methylazetidin-1-yl)carbonyl]-5,6,7,8-tetrahydro[1]benzothieno[2,3-d]pyrimidin-4-yl}amino)-8′-methyl-2′H-spiro[cyclohexane-1,3′-imidazo[1,5-a]pyridine]-1′,5′-dione] | 1.5 | –
7 | Cc1cc(Nc2ncnc3sc4c(c23)CC[C@H](C(=O)N2CC(NC(=O)OC(C)(C)C)C2)C4)c(=O)n2c1C(=O)NC21CCCCC1 [Example 7, tert-Butyl [1-({(7S)-4-[(8′-methyl-1′,5′-dioxo-1′,5′-dihydro-2′H-spiro[cyclohexane-1,3′-imidazo[1,5-a]pyridin]-6′-yl)amino]-5,6,7,8-tetrahydro[1]benzothieno[2,3-d]pyrimidin-7-yl}carbonyl)azetidin-3-yl]carbamate] | 4.2 | –
8 | Cc1cc(Nc2ncnc3sc4c(c23)CC[C@H](C(=O)N2C[C@H]3C[C@@H]2CO3)C4)c(=O)n2c1C(=O)NC21CCCCC1 [Example 8, 8′-Methyl-6′-({(7S)-7-[(1R,4R)-2-oxa-5-azabicyclo[2.2.1]hept-5-ylcarbonyl]-5,6,7,8-tetrahydro[1]benzothieno[2,3-d]pyrimidin-4-yl}amino)-2′H-spiro[cyclohexane-1,3′-imidazo[1,5-a]pyridine]-1′,5′-dione] | 0.6 | –
9 | Cc1cc(Nc2ncnc3sc4c(c23)CC[C@H](C(=O)N2CC[C@H](N(C)C)C2)C4)c(=O)n2c1C(=O)NC21CCCCC1 [Example 9, 6′-{[(7S)-7-{[(3S)-3-(Dimethylamino)pyrrolidin-1-yl]carbonyl}-5,6,7,8-tetrahydro[1]benzothieno[2,3-d]pyrimidin-4-yl]amino}-8′-methyl-2′H-spiro[cyclohexane-1,3′-imidazo[1,5-a]pyridine]-1′,5′-dione] | 0.1 | –
10 | Cc1cc(Nc2ncnc3sc4c(c23)CC[C@H](C(=O)N2CCC(=O)CC2)C4)c(=O)n2c1C(=O)NC21CCCCC1 [Example 10, 8′-Methyl-6′-({(7S)-7-[(4-oxopiperidin-1-yl)carbonyl]-5,6,7,8-tetrahydro[1]benzothieno[2,3-d]pyrimidin-4-yl}amino)-2′H-spiro[cyclohexane-1,3′-imidazo[1,5-a]pyridine]-1′,5′-dione] | – | 0.3
11 | Cc1cc(Nc2ncnc3sc4c(c23)CC[C@H](C(=O)N2CC(N)C2)C4)c(=O)n2c1C(=O)NC21CCCCC1 [Example 11, 6′-({(7S)-7-[(3-Aminoazetidin-1-yl)carbonyl]-5,6,7,8-tetrahydro[1]benzothieno[2,3-d]pyrimidin-4-yl}amino)-8′-methyl-2′H-spiro[cyclohexane-1,3′-imidazo[1,5-a]pyridine]-1′,5′-dione] | 0.5 | –
12 | Cc1cc(Nc2ncnc3sc4c(c23)CC[C@H](C(=O)N(C)CCN(C)C)C4)c(=O)n2c1C(=O)NC21CCCCC1 [Example 12, (7S)—N-[2-(Dimethylamino)ethyl]-N-methyl-4-[(8′-methyl-1′,5′-dioxo-1′,5′-dihydro-2′H-spiro[cyclohexane-1,3′-imidazo[1,5-a]pyridin]-6′-yl)amino]-5,6,7,8-tetrahydro[1]benzothieno[2,3-d]pyrimidine-7-carboxamide] | 0.2 | –
13 | Cc1cc(Nc2ncnc3sc4c(c23)CC[C@H](C(=O)N2C3CCC2CC(=O)C3)C4)c(=O)n2c1C(=O)NC21CCCCC1 [Example 13, 8′-Methyl-6′-({(7S)-7-[(3-oxo-8-azabicyclo[3.2.1]oct-8-yl)carbonyl]-5,6,7,8-tetrahydro[1]benzothieno[2,3-d]pyrimidin-4-yl}amino)-2′H-spiro[cyclohexane-1,3′-imidazo[1,5-a]pyridine]-1′,5′-dione] | 0.4 | –
14 | Cc1cc(Nc2ncnc3sc4c(c23)CC[C@H](C(=O)N2CCN(C)[C@@H](C)C2)C4)c(=O)n2c1C(=O)NC21CCCCC1 [Example 14, 6′-{[(7S)-7-{[(3S)-3,4-Dimethylpiperazin-1-yl]carbonyl}-5,6,7,8-tetrahydro[1]benzothieno[2,3-d]pyrimidin-4-yl]amino}-8′-methyl-2′H-spiro[cyclohexane-1,3′-imidazo[1,5-a]pyridine]-1′,5′-dione] | 0.8 | –
15 | Cc1cc(Nc2ncnc3sc4c(c23)CC[C@H](C(=O)O)C4)c(=O)n2c1C(=O)NC2(C)C [Example 15, (7S)-4-[(3,3,8-Trimethyl-1,5-dioxo-1,2,3,5-tetrahydroimidazo[1,5-a]pyridin-6-yl)amino]-5,6,7,8-tetrahydro[1]benzothieno[2,3-d]pyrimidine-7-carboxylic acid] | 15.6 | –
16 | Cc1cc(Nc2ncnc3sc4c(c23)CC[C@H](C(=O)O)C4)c(=O)n2c1C(=O)NC21CCC1 [Example 16, (7S)-4-[(8′-Methyl-1′,5′-dioxo-1′,5′-dihydro-2′H-spiro[cyclobutane-1,3′-imidazo[1,5-a]pyridin]-6′-yl)amino]-5,6,7,8-tetrahydro[1]benzothieno[2,3-d]pyrimidine-7-carboxylic acid] | 3.9 | –
17 | Cc1cc(Nc2ncnc3sc4c(c23)CC[C@H](C(N)=O)C4)c(=O)n2c1C(=O)NC21CCCCC1 [Example 17, (7S)-4-[(8′-Methyl-1′,5′-dioxo-1′,5′-dihydro-2′H-spiro[cyclohexane-1,3′-imidazo[1,5-a]pyridin]-6′-yl)amino]-5,6,7,8-tetrahydro[1]benzothieno[2,3-d]pyrimidine-7-carboxamide] | 0.5 | –
18 | Cc1cc(Nc2ncnc3sc4c(c23)CC[C@H](C(=O)N2CCOC[C@H]2C)C4)c(=O)n2c1C(=O)NC21CCCCC1 [Example 18, 8′-methyl-6′-{[(7S)-7-{[(3R)-3-methylmorpholin-4-yl]carbonyl}-5,6,7,8-tetrahydro[1]benzothieno[2,3-d]pyrimidin-4-yl]amino}-2′H-spiro[cyclohexane-1,3′-imidazo[1,5-a]pyridine]-1′,5′-dione] | 0.3 | –
19 | Cc1cc(Nc2ncnc3sc4c(c23)CC[C@H](C(=O)N2CC(N(C)C)C2)C4)c(=O)n2c1C(=O)NC21CCCCC1 [Example 19, 6′-{[(7S)-7-{[3-(Dimethylamino)azetidin-1-yl]carbonyl}-5,6,7,8-tetrahydro[1]benzothieno[2,3-d]pyrimidin-4-yl]amino}-8′-methyl-2′H-spiro[cyclohexane-1,3′-imidazo[1,5-a]pyridine]-1′,5′-dione] | 0.9 | –
